Assay results published in PubChem BioAssay (NCI).
Values joined by “and” are separate entries in the source; they are usually repeats but may differ in a detail not shown here. Equal values may be shown once.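 Where inhibition never reached the appropriate level, the endpoint shown equals the highest concentration tested. Otherwise, values were interpolated linearly from a five-concentration, 48-hour dose response in 96-well plates. The concentration for 50% growth inhibition is given as GI50. TGI: concentration producing complete growth inhibition.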 *1 amine or outer side, *2 acyl side, *3 side chain or, on linkers, in order; H or OH if unused. Where a SMILES comes first, the peptide text is derived from it. [ ]: non-standard residue; d: D form. The star is where a group is joined. X12 = NCCCCC(N[*:1])C(=O)CN1CCCC1C(=O)[*:2]; Pentadecanoyl = CCCCCCCCCCCCCCC(=O)*

Experiments:
Test in all cases: DTP human tumour cell line panel, 48 h
A549 NSCLC = system: A549 NSCLC
HCT-15 colon = system: HCT-15 colon
HOP-92 NSCLC = system: HOP-92 NSCLC
KM12 colon = system: KM12 colon
M14 melanoma = system: M14 melanoma
NCI-H23 lung = system: NCI-H23 lung
NCI-H522 lung = system: NCI-H522 lung
OVCAR-3 ovarian = system: OVCAR-3 ovarian
UO-31 renal = system: UO-31 renal
HS 578T breast = system: HS 578T breast

Molecule	TGI (A549 NSCLC)	TGI (HCT-15 colon)	TGI (HOP-92 NSCLC)	TGI (KM12 colon)	TGI (M14 melanoma)	TGI (NCI-H23 lung)	TGI (NCI-H522 lung)	TGI (OVCAR-3 ovarian)	TGI (UO-31 renal)	TGI (HS 578T breast)	GI50 (A549 NSCLC)	GI50 (HCT-15 colon)	GI50 (HOP-92 NSCLC)	GI50 (HS 578T breast)	GI50 (KM12 colon)	GI50 (M14 melanoma)	GI50 (NCI-H23 lung)	GI50 (OVCAR-3 ovarian)	GI50 (NCI-H522 lung)	GI50 (UO-31 renal)
CN1C(=O)[C@](C)(Cc2ccc(F)cc2)N(C(=O)OC(C)(C)C)[C@@H]1C(C)(C)C	> 100 µM	> 100 µM	> 100 µM	> 100 µM	> 100 µM	> 100 µM	46.9 µM	84 µM	> 100 µM	–	–	–	–	–	–	–	–	–	–	–
CC1CC/C(=C\c2ccc(F)cc2)C2=C1C(c1ccc(F)cc1)NC(=S)N2 (stereo not given)	–	> 100 µM	–	> 100 µM	> 100 µM	> 100 µM	–	> 100 µM	> 100 µM	> 100 µM	–	–	–	–	–	–	–	–	–	–
Cc1cc(S(=O)(=O)Nc2n[nH]c(N)n2)c(S)cc1Cl	> 10 µM	> 10 µM	–	> 10 µM	> 10 µM	> 10 µM	> 10 µM	> 10 µM	–	> 10 µM	–	–	–	–	–	–	–	–	–	–
COc1ccc(-c2nc3ncccn3c2-c2ccc(S(C)(=O)=O)cc2)cc1	> 100 µM	> 100 µM	> 100 µM	> 100 µM	> 100 µM	> 100 µM	–	> 100 µM	> 100 µM	> 100 µM	–	–	–	–	–	–	–	–	–	–
N#CC(NNC(=O)c1c(Cl)c(Cl)c(Cl)c(Cl)c1-c1nc2ccc(C(=O)c3ccccc3)cc2[nH]1)c1cccc(Oc2ccccc2)c1 (stereo not given)	> 100 µM	53.3 µM	48.3 µM	> 100 µM	83.9 µM	90.9 µM	–	> 100 µM	> 100 µM	–	–	–	–	–	–	–	–	–	–	–
COc1ccc(Nc2ccnc3cc(Cl)ccc23)cc1CN(CCCl)CCCl	> 28.5 µM	6.44 µM	5.53 µM	9.75 µM	7.92 µM	3.26 µM	–	6.04 µM	–	> 100 µM	1.69 µM	1850 nM	1170 nM	3.14 µM	2.21 µM	2140 nM	1040 nM	1950 nM	–	–
H-KIFKKFKTIIKKVWRIFGRF-NH2	–	–	4.67 µM	–	> 100 µM	7.51 µM	> 100 µM	5.01 µM	–	–	–	–	2000 nM	–	–	2370 nM	2440 nM	2140 nM	2340 nM	–
NC(=O)c1nnc2c(F)cccc2c1N	> 100 µM	> 100 µM	–	> 100 µM	> 100 µM	> 100 µM	> 100 µM	> 100 µM	> 100 µM	> 100 µM	–	–	–	–	–	–	–	–	–	–
O=c1cc(-c2ccccc2)[nH]c2c(F)ccc(F)c12	> 100 µM	> 100 µM	> 100 µM	> 100 µM	> 100 µM	> 100 µM	> 100 µM	–	> 100 µM	–	–	–	–	–	–	–	–	–	–	–
N#Cc1c(NC(=S)Nc2ccccc2)sc2c1CCCC2	–	> 100 µM	–	> 100 µM	–	> 100 µM	> 100 µM	> 100 µM	> 100 µM	> 100 µM	–	–	–	–	–	–	–	–	–	–
COc1cccc2c1C(=O)c1c(O)c3c(c(O)c1C2=O)C[C@@](O)(C(=O)CO)CC3OC1CC(NCCCCC(OC(C)=O)OC(C)=O)C(O)C(C)O1 (stereo not given in full)	–	> 1 µM	0.00682 µM and 0.0079 µM	0.00774 µM and 0.022 µM	0.00458 µM and 0.00549 µM	0.00237 µM	0.00344 µM and 0.00513 µM	–	0.0043 µM	–	–	–	2.86 nM	–	–	1.1 nM	0.808 nM	–	1.25 nM	–
N#Cc1nc(C(=O)c2ccccc2)oc1N	> 100 µM	> 100 µM	> 100 µM	> 100 µM	> 100 µM	–	–	–	–	> 100 µM	–	–	–	–	–	–	–	–	–	–
C/C(=N/NC(=O)c1ccccc1Nc1ccccc1C(=O)N/N=C(\C)c1ccc(C)cc1)c1ccc(C)cc1	> 100 µM	> 100 µM	> 100 µM	> 100 µM	> 100 µM	> 100 µM	–	> 100 µM	> 100 µM	> 100 µM	–	–	–	–	–	–	–	–	–	–
CCCCCCCCCCCCCCC(=O)NC(CCCCN)C(=O)CN1CCCC1C(=O)NCC(=O)NC(Cc1ccccc1)C(=O)N1CCCC1C(=O)NC(CO)C(=O)NC(Cc1ccc(O)cc1)C(=O)NC(CCCCN)C(=O)NC(CC(C)C)C(=O)NC(CCCN=C(N)N)C(=O)N1CCCC1C(=O)NCC(N)=O (stereo not given) (Pentadecanoyl-[X12]GFPSYKLRPG-NH2; configuration not given here)	47.6 µM	–	37.4 µM	38.7 µM	39.8 µM	49.6 µM	55.6 µM	64.6 µM	60.2 µM	> 100 µM	23.7 µM	–	15900 nM	38.6 µM	7.61 µM	19200 nM	21700 nM	28000 nM	23100 nM	22.6 µM
O=C(N(C1=CCCC1)N(c1ccccc1)c1ccccc1)C(F)(F)F	98.4 µM	51.8 µM	33.9 µM	43.9 µM	74.5 µM	> 100 µM	25.3 µM	44.4 µM	75.6 µM	–	–	–	–	–	–	–	–	–	–	–
CCC(C)Cn1c(C)nc2c1C(=O)c1ccccc1C2=O (stereo not given)	> 100 µM	> 100 µM	78.9 µM	> 100 µM	> 100 µM	48.4 µM	> 100 µM	66.7 µM	87.8 µM	–	–	–	–	–	–	–	–	–	–	–

Molecule	TGI (A549 NSCLC)	TGI (HCT-15 colon)	TGI (HOP-92 NSCLC)	TGI (KM12 colon)	TGI (M14 melanoma)	TGI (NCI-H23 lung)	TGI (NCI-H522 lung)	TGI (OVCAR-3 ovarian)	TGI (UO-31 renal)	TGI (HS 578T breast)	GI50 (A549 NSCLC)	GI50 (HCT-15 colon)	GI50 (HOP-92 NSCLC)	GI50 (HS 578T breast)	GI50 (KM12 colon)	GI50 (M14 melanoma)	GI50 (NCI-H23 lung)	GI50 (OVCAR-3 ovarian)	GI50 (NCI-H522 lung)	GI50 (UO-31 renal)
CN(C)CCSc1nccc(-c2ccc(-c3ccnc(SCCN(C)C)n3)s2)n1	31.7 µM	17.3 µM	28.1 µM	16 µM	–	28.3 µM	33.5 µM	31.2 µM	16.6 µM	–	–	–	–	–	–	–	–	–	–	–
COc1ccc(Cn2nc(OCc3ccccc3)c3cc([N+](=O)[O-])ccc32)cc1	> 100 µM	> 100 µM	–	> 100 µM	> 100 µM	> 100 µM	> 100 µM	> 100 µM	–	> 100 µM	–	–	–	–	–	–	–	–	–	–
C=C1CC2C[C@H](OS(=O)(=O)c3ccc(C)cc3)C(C1)N2C (stereo not given in full)	> 100 µM	> 100 µM	–	> 100 µM	> 100 µM	> 100 µM	> 100 µM	> 100 µM	> 100 µM	> 100 µM	–	–	–	–	–	–	–	–	–	–
COc1ccc(C2CCc3c(cnc4nc(N)nc(N)c34)C2)cc1 (stereo not given)	> 100 µM	> 100 µM	12.3 µM	> 100 µM	> 100 µM	–	44.9 µM	> 100 µM	–	> 100 µM	–	–	–	–	–	–	–	–	–	–
CC1[C@@H]2C[C@@H]3O[C@@]34[C@H]3CCC5Cc6nc7c(nc6C[C@@]5(C)C3(O)CC(=O)[C@@]24CO[C@]12OC(C)(C)CC2O)CC1CC[C@@H]2C3=C[C@H]4O[C@@]5(O[C@@](C)(CO)C[C@@H]5O)C(C)[C@@]4(O)[C@]3(C)[C@@H](O)CC2[C@]1(C)C7 (stereo not given in full)	1.16 µM	2.66 µM	0.976 µM	0.893 µM	–	0.467 µM	0.653 µM	> 3.52 µM	0.755 µM	–	–	–	–	–	–	–	–	–	–	–
CC1C/C(=C\c2ccc(O)c(O)c2)C(=O)/C(=C/c2ccc(O)c(O)c2)C1 (stereo not given)	32.8 µM	25.5 µM	18.7 µM	20.9 µM	–	12.9 µM	3.58 µM	18.1 µM	–	24.9 µM	–	–	–	–	–	–	–	–	–	–
O=S1(=O)OCCOS(=O)(=O)C1S(=O)(=O)c1cccc2ccccc12	> 100 µM	> 100 µM	> 100 µM	> 100 µM	> 100 µM	> 100 µM	–	> 100 µM	> 100 µM	–	–	–	–	–	–	–	–	–	–	–
COc1ccc(C2=C(N)c3cc(OC)ccc3C2=O)cc1	> 100 µM	> 100 µM	> 100 µM	> 100 µM	> 100 µM	> 100 µM	> 100 µM	> 100 µM	–	69.9 µM	–	–	–	–	–	–	–	–	–	–
Clc1ccc(C2=NNC(c3cccc(Cl)c3)C2)cc1 (stereo not given)	> 100 µM	–	38.2 µM	> 100 µM	> 100 µM	> 100 µM	14.4 µM	> 100 µM	21.4 µM	> 100 µM	–	–	–	–	–	–	–	–	–	–
Cc1cccc(-c2cc(=O)c3cc(C)cnc3[nH]2)c1	> 100 µM	> 26.8 µM	> 100 µM	16.4 µM	> 100 µM	> 35.9 µM	0.259 µM	–	> 100 µM	–	–	–	–	–	–	–	–	–	–	–
c1ccc(C2C3=C(CCCC3)Nc3nnnn32)cc1 (stereo not given)	> 100 µM	> 100 µM	–	> 100 µM	> 100 µM	> 100 µM	–	> 100 µM	> 100 µM	> 100 µM	–	–	–	–	–	–	–	–	–	–
CC(=O)c1c2c(cc3c1CCC3)CCC2	> 100 µM	> 100 µM	–	> 100 µM	> 100 µM	> 100 µM	> 100 µM	> 100 µM	> 100 µM	> 100 µM	–	–	–	–	–	–	–	–	–	–
O=C1/C(=C/Cc2ccco2)N=C(c2ccccc2)N1c1nc2c(Cl)cc(Cl)cc2s1	80.7 µM	> 100 µM	87.4 µM	> 100 µM	> 100 µM	–	–	52.6 µM	72.8 µM	57.4 µM	–	–	–	–	–	–	–	–	–	–
C[C@@H]1CC(=O)[C@@]2(C)[C@](O)(CCC3O[C@]32C)[C@@]12CC(c1ccoc1)OC2=O (stereo not given in full)	> 100 µM	> 100 µM	–	> 100 µM	> 100 µM	> 100 µM	> 100 µM	> 100 µM	> 100 µM	> 100 µM	–	–	–	–	–	–	–	–	–	–
O=C(c1cccs1)N(C(=O)N1CCCCC1)c1ccccc1	–	> 100 µM	–	> 100 µM	> 100 µM	> 100 µM	–	> 100 µM	> 100 µM	> 100 µM	–	–	–	–	–	–	–	–	–	–
Cc1nc2ccccc2nc1N1CCCC1	> 100 µM	> 100 µM	> 100 µM	> 100 µM	> 100 µM	> 100 µM	> 100 µM	–	–	> 100 µM	–	–	–	–	–	–	–	–	–	–
